Test results reported in the supplement of paper PMC4862054.

How the values were obtained:
Conditions in all cases: incubation time: 72 h
HCC1143 [1] = assay: normalised response (% of control), CellTox Green; higher = less cell death (100 = DMSO, 0 = benzethonium chloride kill control)
Procedure, shortened: (§1)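 In 384-well plates holding compound at 5 concentrations in 10-fold steps over a 10,000-fold range specific to each compound, breast cancer cell lines were seeded as 20 µl suspension and incubated 72 h. CellTox Green fluorescence was measured at 485/520 nm, after which CellTiter-Glo luminescence was measured following 10 min at room temperature. Plate signals were normalised to 0.1 % DMSO (100) and a positive kill control (0), and each value is the normalised signal at a single concentration.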

HCC1599 [2] = assay: as above
Procedure, shortened: as §1

MDA-MB-453 [3] = assay: as above
Procedure, shortened: as §1

CAL-120 [4] = assay: as above
Procedure, shortened: as §1

CAL-51 [5] = assay: as above
Procedure, shortened: as §1

Hs578T [6] = assay: as above
Procedure, shortened: as §1

MDA-MB-468 [7] = assay: as above
Procedure, shortened: as §1

DU-4475 [8] = assay: as above
Procedure, shortened: as §1

BT-549 [9] = assay: as above
Procedure, shortened: as §1

MDA-MB-436 [10] = assay: as above
Procedure, shortened: as §1

CAL-148 [11] = assay: as above
Procedure, shortened: as §1

BT-474 [12] = assay: as above
Procedure, shortened: as §1

HCC1937 [13] = assay: as above
Procedure, shortened: as §1

MCF-10A [14] = assay: as above
Procedure, shortened: as §1

MDA-MB-231 [15] = assay: as above
Procedure, shortened: as §1

MFM-223 [16] = assay: as above
Procedure, shortened: as §1

CAL-85-1 [17] = assay: as above
Procedure, shortened: as §1

HCC1143 [18] = assay: normalised response (% of control), CellTiter-Glo; higher = more viable cells (100 = DMSO, 0 = benzethonium chloride kill control)
Procedure: (§2)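 DSRT, 72 h incubation, CellTox Green / CellTiter-Glo readout. Signal is normalised to DMSO and benzethonium chloride controls. Value is the normalised response at the highest dose.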

HCC1599 [19] = assay: as above
Procedure: as §2

MDA-MB-453 [20] = assay: as above
Procedure: as §2

CAL-120 [21] = assay: as above
Procedure: as §2

CAL-51 [22] = assay: as above
Procedure: as §2

Hs578T [23] = assay: as above
Procedure: as §2

MDA-MB-468 [24] = assay: as above
Procedure: as §2

DU-4475 [25] = assay: as above
Procedure: as §2

BT-549 [26] = assay: as above
Procedure: as §2

MDA-MB-436 [27] = assay: as above
Procedure: as §2

CAL-148 [28] = assay: as above
Procedure: as §2

HDQ-P1 [29] = assay: as above
Procedure: as §2

SK-BR-3 = assay: as above
Procedure: as §2

BT-474 [30] = assay: as above
Procedure: as §2

HCC1937 [31] = assay: as above
Procedure: as §2

MCF-10A [32] = assay: as above
Procedure: as §2

MDA-MB-231 [33] = assay: as above
Procedure: as §2

MFM-223 [34] = assay: as above
Procedure: as §2

CAL-85-1 [35] = assay: as above
Procedure: as §2

HDQ-P1 [36] = assay: normalised response (% of control), CellTox Green; higher = less cell death (100 = DMSO, 0 = benzethonium chloride kill control)
Procedure, shortened: as §1

Row | SMILES | normalised response (HCC1143 [1]) [%] | normalised response (HCC1599 [2]) [%] | normalised response (MDA-MB-453 [3]) [%] | normalised response (CAL-120 [4]) [%] | normalised response (CAL-51 [5]) [%] | normalised response (Hs578T [6]) [%] | normalised response (MDA-MB-468 [7]) [%] | normalised response (DU-4475 [8]) [%] | normalised response (BT-549 [9]) [%] | normalised response (MDA-MB-436 [10]) [%] | normalised response (CAL-148 [11]) [%] | normalised response (BT-474 [12]) [%] | normalised response (HCC1937 [13]) [%] | normalised response (MCF-10A [14]) [%] | normalised response (MDA-MB-231 [15]) [%] | normalised response (MFM-223 [16]) [%] | normalised response (CAL-85-1 [17]) [%] | normalised response (HCC1143 [18]) [%] | normalised response (HCC1599 [19]) [%] | normalised response (MDA-MB-453 [20]) [%] | normalised response (CAL-120 [21]) [%] | normalised response (CAL-51 [22]) [%] | normalised response (Hs578T [23]) [%] | normalised response (MDA-MB-468 [24]) [%] | normalised response (DU-4475 [25]) [%] | normalised response (BT-549 [26]) [%] | normalised response (MDA-MB-436 [27]) [%] | normalised response (CAL-148 [28]) [%] | normalised response (HDQ-P1 [29]) [%] | normalised response (SK-BR-3) [%] | normalised response (BT-474 [30]) [%] | normalised response (HCC1937 [31]) [%] | normalised response (MCF-10A [32]) [%] | normalised response (MDA-MB-231 [33]) [%] | normalised response (MFM-223 [34]) [%] | normalised response (CAL-85-1 [35]) [%] | normalised response (HDQ-P1 [36]) [%]
1 | CC(=O)O[C@]1(C(C)=O)CC[C@H]2[C@@H]3C=C(C)C4=CC(=O)CC[C@]4(C)[C@H]3CC[C@@]21C [Megestrol acetate] (10000 nM) | 112 | 95.9 | 99.8 | 96.6 | 111 | 58.5 | 176 | 97.6 | 105 | 88.3 | 99.9 | 99.2 | 84 | 102 | 123 | 103 | 109 | 102 | 99.5 | 91.3 | 90 | 123 | 94.5 | 95.9 | 93.9 | 107 | 96 | 88.7 | 102 | 89 | 111 | 98 | 135 | 124 | 91.7 | 97.7 | 
2 | CCN1CCN(c2ccc(Nc3cc(N(C)C(=O)Nc4c(Cl)c(OC)cc(OC)c4Cl)ncn3)cc2)CC1 [NVP-BGJ398] (1000 nM) | 105 | 100 | 81.6 | 89.3 | 105 | 115 | 71.5 | 97.7 | 84.6 | 102 | 98.1 | 102 | 52.5 | 73.2 |  | 94.1 | 119 | 93.6 | 98.7 | 105 | 71.1 | 128 | 86.2 | 97.2 | 100 | 75.9 | 92.7 | 96.5 | 99.8 | 97.7 | 91.3 | 95.7 | 101 | 96.2 | 50.3 | 101 | 101
3 | O=C(c1ccc(C(=O)N2CCC(N3CCCC3)CC2)c(Nc2ccccc2)c1)N1CCC(N2CCCC2)CC1 [UNC1215] (30000 nM) |  | 94.3 | 102 | 98.6 | 106 | 84.2 | 135 | 98.2 | 86.1 | 93.4 | 101 | 102 | 98.5 | 82.8 | 88.8 | 105 | 116 | 96.5 | 96 | 99.8 | 107 | 99.6 | 99.6 | 95 | 94.8 | 98 | 93.2 | 93.8 | 97.7 | 94 | 101 | 94.2 | 95.4 | 93.9 | 95.1 | 92.2 | 50.2
